How the values were obtained:
[1] = biological target: T1, human recombinant dopamine D2L receptor (Homo sapiens, UniProt P14416); assay: Dopamine D2L radioligand binding ([3H]Spiperone); conditions: read-out: Dopamine (1 μM) D2L, inhibition of ligand binding
T1 construct: expressed in transfected cells; host or cells: CHO cells
How it was run: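 Receptor expressed in CHO cells, in Tris-HCl pH 7.4 buffer with 150 mM NaCl. Binding used 0.16 nM [3H]spiperone for 120 min at 25 °C, with non-specific binding defined by 10 μM haloperidol and filtration counting.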

[2] = biological target: T2, human recombinant adrenergic α2B receptor (Homo sapiens, UniProt P18089); assay: Adrenergic α2B radioligand binding ([3H]Rauwolscine); conditions: 1 μM; read-out: Adrenergic α2B, inhibition of ligand binding (1 μM)
T2 construct: expressed in transfected cells; host or cells: CHO-K1 cells
T2 sequence (P18089 1-450): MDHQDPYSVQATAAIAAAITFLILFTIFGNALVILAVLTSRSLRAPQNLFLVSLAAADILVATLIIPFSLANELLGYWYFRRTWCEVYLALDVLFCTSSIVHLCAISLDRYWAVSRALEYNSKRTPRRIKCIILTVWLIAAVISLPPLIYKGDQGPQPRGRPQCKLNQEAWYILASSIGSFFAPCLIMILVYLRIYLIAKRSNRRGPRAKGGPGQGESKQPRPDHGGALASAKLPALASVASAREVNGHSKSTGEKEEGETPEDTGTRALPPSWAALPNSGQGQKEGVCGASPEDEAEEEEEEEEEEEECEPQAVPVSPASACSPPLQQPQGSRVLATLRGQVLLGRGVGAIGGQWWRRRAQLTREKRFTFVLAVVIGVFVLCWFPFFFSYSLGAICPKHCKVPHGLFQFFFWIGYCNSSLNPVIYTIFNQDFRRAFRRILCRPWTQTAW
Description: To evaluate in radioligand binding assays the activity of compounds of the invention, human recombinant adrenergic α2B receptor expressed in Chinese hamster ovary (CHO-K1) cells (Uhlen S et al. Eur J. Pharmacol. 343(1):93, 1998) in a modified Tris-HCl buffer (50 mM Tris-HCl, pH 7.4, 12.5 mM MgCl2, 1 mM EDTA, 0.2% BSA) was used. Compounds of the invention were incubated with 2.5 nM [^3H]Rauwolscine for 60 minutes at 25° C. Non-specific binding was estimated in the presence of 10 μM Prozosin. Receptor proteins were filtered and washed, the filters were then counted to determine [^3H]Rauwolscine specifically bound. Compounds were screened at 1 μM or lower, using 1% DMSO as vehicle. Biochemical assay results are presented as the percent inhibition of specific binding in Table 3.

[3] = biological target: T3, human recombinant serotonin (5-Hydroxytryptamine) 5-HT6 receptor (Homo sapiens, UniProt P50406); assay: Serotonin 5-HT6 radioligand binding ([3H]LSD); conditions: read-out: Serotonin 5-HT6, inhibition of ligand binding (1 μM)
T3 construct: expressed in transfected cells; host or cells: human HeLa cells
T3 sequence (P50406 whole entry): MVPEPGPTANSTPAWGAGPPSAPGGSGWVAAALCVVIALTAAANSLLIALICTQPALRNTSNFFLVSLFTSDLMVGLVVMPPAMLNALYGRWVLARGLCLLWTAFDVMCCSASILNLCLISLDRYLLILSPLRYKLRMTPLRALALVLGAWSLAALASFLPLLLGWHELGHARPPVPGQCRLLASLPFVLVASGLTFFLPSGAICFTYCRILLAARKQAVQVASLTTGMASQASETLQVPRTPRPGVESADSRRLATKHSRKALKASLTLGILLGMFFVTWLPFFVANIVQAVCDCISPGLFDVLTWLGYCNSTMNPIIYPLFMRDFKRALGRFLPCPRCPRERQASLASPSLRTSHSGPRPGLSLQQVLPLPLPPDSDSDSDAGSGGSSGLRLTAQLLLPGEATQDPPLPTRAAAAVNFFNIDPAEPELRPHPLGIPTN
How it was run: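 Membranes of HeLa cells expressing human 5-HT6 were incubated with 1.5 nM [3H]LSD in Tris-HCl buffer pH 7.4 for 120 min at 37° C, with non-specific binding defined by 5 μM 5-HT.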

[4] = biological target: T4, human recombinant adrenergic α2A receptor (Homo sapiens, UniProt P08913); assay: Adrenergic α2A radioligand binding ([3H]MK-912); conditions: 1 μM; read-out: Adrenergic α2A, inhibition of ligand binding (1 μM)
T4 construct: expressed in transfected cells; host or cells: insect Sf9 cells
T4 sequence (P08913 1-465): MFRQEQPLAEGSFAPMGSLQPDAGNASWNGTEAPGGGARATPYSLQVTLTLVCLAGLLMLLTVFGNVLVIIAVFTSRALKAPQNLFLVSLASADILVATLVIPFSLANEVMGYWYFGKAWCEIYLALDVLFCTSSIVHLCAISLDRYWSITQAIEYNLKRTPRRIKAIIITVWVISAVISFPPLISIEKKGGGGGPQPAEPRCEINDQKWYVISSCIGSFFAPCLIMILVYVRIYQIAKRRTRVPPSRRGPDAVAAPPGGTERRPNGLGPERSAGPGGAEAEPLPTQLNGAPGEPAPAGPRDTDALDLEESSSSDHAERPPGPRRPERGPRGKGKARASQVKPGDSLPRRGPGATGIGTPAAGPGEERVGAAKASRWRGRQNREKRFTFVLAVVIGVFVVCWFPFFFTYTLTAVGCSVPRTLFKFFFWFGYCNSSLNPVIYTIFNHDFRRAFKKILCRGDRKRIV
Description: To evaluate in radioligand binding assays the activity of compounds of the invention, human recombinant adrenergic α2A receptor expressed in insect Sf9 cells (Uhlen S et al. J Pharmacol Exp Ther. 271:1558, 1994) in a modified Tris-HCl buffer (50 mM Tris-HCl, pH 7.4, 12.5 mM MgCl2, 2 mM EDTA) was used. Compounds of invention were incubated with 1 nM [^3H]MK-912 for 60 minutes at 25° C. MK912 is (2S-trans)-1,3,4,5′,6,6′,7,12b-octahydro-1′,3′-dimethyl-spiro[2H-benzofuro[2,3-a]quinolizine-2,4′(1′H) -pyrimidin]-2′(3′H)-one hydrochloride Non-specific binding was estimated in the presence of 10 μM WB-4101 (2-(2,6-Dimethoxyphenoxyethyl)aminomethyl-1,4-benzodioxane hydrochloride). Receptor proteins were filtered and washed, the filters were then counted to determine [^3H]MK-912 specifically bound. Compounds were screened at 1 μM or lower, using 1% DMSO as vehicle. Biochemical assay results are presented as the percent inhibition of specific binding in Table 3.

T1 sequence (P14416 whole entry): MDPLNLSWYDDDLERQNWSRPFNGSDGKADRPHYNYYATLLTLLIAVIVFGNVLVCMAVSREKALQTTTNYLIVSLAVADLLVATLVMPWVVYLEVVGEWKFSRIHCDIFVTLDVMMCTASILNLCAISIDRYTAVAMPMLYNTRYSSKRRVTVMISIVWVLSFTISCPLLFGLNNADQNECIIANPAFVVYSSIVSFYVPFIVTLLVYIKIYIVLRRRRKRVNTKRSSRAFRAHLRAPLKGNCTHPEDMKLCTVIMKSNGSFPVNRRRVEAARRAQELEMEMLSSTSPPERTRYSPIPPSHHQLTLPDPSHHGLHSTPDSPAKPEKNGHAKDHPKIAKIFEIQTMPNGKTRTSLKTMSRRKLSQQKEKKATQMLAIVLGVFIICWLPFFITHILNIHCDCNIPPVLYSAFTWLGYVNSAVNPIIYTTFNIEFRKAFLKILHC

| Compound | inhibition at 1 µM [1] | inhibition at 1 µM [2] | inhibition at 1 µM [3] | inhibition at 1 µM [4] |
| --- | --- | --- | --- | --- |
| CN1[C@@H]2CC[C@H]1c1c(n(CC(C)(O)c3ccc(F)cc3)c3ccccc13)C2 (some centres unmarked) [Compound 99] | -6% | 92% | -2% | 25% |
| CN1[C@@H]2CC[C@H]1c1c(n(CC(=O)N3CCCCC3)c3ccccc13)C2 [Compound 101] | 10% | 76% | 15% | 18% |
| Cc1ccc(CCn2c3c(c4ccccc42)[C@@H]2CC[C@H](C3)N2C)cn1 [Compound 102] | -1% | 42% | -5% | 4% |
| Cc1ccc2c(c1)c1c(n2CCC#N)CC2CCC1N2C (centres unmarked) [Compound 103] | 4% | 94% | 7% | 57% |
| CN1C2CCC1c1c(n(CCC#N)c3ccc(Cl)cc13)C2 (centres unmarked) [Compound 107] | -5% | 57% | -3% | 42% |
| CN1C2CCC1c1c(n(CC(=O)c3ccccc3)c3ccc(Cl)cc13)C2 (centres unmarked) [Compound 110] | 14% | 92% | 48% | 48% |
| CN1C2CCC1c1c(n(CC(=O)c3ccc(Cl)cc3)c3ccc(Cl)cc13)C2 (centres unmarked) [Compound 111] | 6% | 96% | 38% | 89% |
| Cc1ccc2c(c1)c1c(n2CCc2nc(-c3ccccc3)cs2)CC2CCC1N2C (centres unmarked) [Compound 114] | 11% | 107% | 29% | 46% |
| C/C(=C\n1c2c(c3cc(C)ccc31)C1CCC(C2)N1C)c1ccc(Cl)cc1 (centres unmarked) [Compound 116] | -2% | 95% | 10% | 83% |
| C/C(=C/n1c2c(c3ccccc31)[C@@H]1CC[C@H](C2)N1C)c1ccc(F)cc1 [Compound 121] | 19% | 100% | 65% | 55% |
| C/C(=C\n1c2c(c3cc(Cl)ccc31)C1CCC(C2)N1C)c1ccc(F)cc1 (centres unmarked) [Compound 123] | 80% | 103% | 98% | 95% |

From patent publication US8546381B2, “Bridged heterocyclic compounds and methods of use” (Medivation Technologies, Inc., priority 2008, dated 2013)
